Data as given in ChEMBL document CHEMBL2413021, “Regioselective synthesis of 6-aryl-benzo[h][1,2,4]-triazolo[5,1-b]quinazoline-7,8-diones as potent antitumoral agents” (Bioorg Med Chem Lett, 2013).

Columns and labels:
HepG2 = assay: Cytotoxicity against human HepG2 cells after 48 hrs by MTT assay; type: functional, cell-based; settings: HepG2, 48 h
SGC-7901 = assay: Cytotoxicity against human SGC7901 cells after 48 hrs by MTT assay; type: functional, cell-based; settings: SGC-7901, 48 h

| SMILES | IC50 (HepG2) [µM] | IC50 (SGC-7901) [µM] |
| --- | --- | --- |
| O=C1C(=O)c2c(nc3ncnn3c2-c2ccc(F)cc2)-c2ccccc21 | 7.85 | 6.12 |
| COc1cccc2c1C(=O)c1c(O)c3c(c(O)c1C2=O)C[C@@](O)(C(=O)CO)C[C@@H]3O[C@H]1C[C@H](N)[C@H](O)[C@H](C)O1 [DOXORUBICIN] | 1.02 | 5.72 |
| COc1ccc(-c2c3c(nc4ncnn24)-c2ccccc2C(=O)C3=O)cc1 | 1.71 | 1.31 |
| O=C1C(=O)c2c(nc3ncnn3c2-c2ccc(Cl)cc2)-c2ccccc21 | 24.9 | 34.9 |
| O=C1C(=O)c2c(nc3ncnn3c2-c2cccc([N+](=O)[O-])c2)-c2ccccc21 | 15.3 | 9.88 |
| O=C1C(=O)c2c(nc3ncnn3c2-c2ccc([N+](=O)[O-])cc2)-c2ccccc21 | 4.74 | 2.65 |
| O=C1C(=O)c2c(nc3ncnn3c2-c2ccccc2)-c2ccccc21 | 3.45 | 2.16 |
| Cc1ccc(-c2c3c(nc4ncnn24)-c2ccccc2C(=O)C3=O)cc1 | 1.19 | 1.71 |
| O=C1C(=O)c2c(nc3ncnn3c2-c2ccc(Cl)cc2Cl)-c2ccccc21 | 2.99 | 1.83 |
| Clc1ccc(-c2c3c(nc4ncnn24)c2ccccc2c2nc4ccccc4nc23)cc1 | > 200 | > 200 |
| COc1cc(-c2c3c(nc4ncnn24)-c2ccccc2C(=O)C3=O)cc(OC)c1OC | 17.9 | 59.2 |
| O=C1C(=O)c2c(nc3ncnn3c2-c2cccs2)-c2ccccc21 | 2.13 | 1.45 |
